Reference: the Kinase Knowledgebase extract (Sharma et al. 2016)

How the values were obtained:
EGFR (murine) [1] = molecular target: EGFR (murine) (UniProt P00533); conditions: for IC50: her 14
EGFR (murine) [2] = molecular target: EGFR (murine) (UniProt P00533); conditions: her 14
EGFR = EGFR (UniProt P00533)
EGFR, sequence (P00533 whole entry, looked up): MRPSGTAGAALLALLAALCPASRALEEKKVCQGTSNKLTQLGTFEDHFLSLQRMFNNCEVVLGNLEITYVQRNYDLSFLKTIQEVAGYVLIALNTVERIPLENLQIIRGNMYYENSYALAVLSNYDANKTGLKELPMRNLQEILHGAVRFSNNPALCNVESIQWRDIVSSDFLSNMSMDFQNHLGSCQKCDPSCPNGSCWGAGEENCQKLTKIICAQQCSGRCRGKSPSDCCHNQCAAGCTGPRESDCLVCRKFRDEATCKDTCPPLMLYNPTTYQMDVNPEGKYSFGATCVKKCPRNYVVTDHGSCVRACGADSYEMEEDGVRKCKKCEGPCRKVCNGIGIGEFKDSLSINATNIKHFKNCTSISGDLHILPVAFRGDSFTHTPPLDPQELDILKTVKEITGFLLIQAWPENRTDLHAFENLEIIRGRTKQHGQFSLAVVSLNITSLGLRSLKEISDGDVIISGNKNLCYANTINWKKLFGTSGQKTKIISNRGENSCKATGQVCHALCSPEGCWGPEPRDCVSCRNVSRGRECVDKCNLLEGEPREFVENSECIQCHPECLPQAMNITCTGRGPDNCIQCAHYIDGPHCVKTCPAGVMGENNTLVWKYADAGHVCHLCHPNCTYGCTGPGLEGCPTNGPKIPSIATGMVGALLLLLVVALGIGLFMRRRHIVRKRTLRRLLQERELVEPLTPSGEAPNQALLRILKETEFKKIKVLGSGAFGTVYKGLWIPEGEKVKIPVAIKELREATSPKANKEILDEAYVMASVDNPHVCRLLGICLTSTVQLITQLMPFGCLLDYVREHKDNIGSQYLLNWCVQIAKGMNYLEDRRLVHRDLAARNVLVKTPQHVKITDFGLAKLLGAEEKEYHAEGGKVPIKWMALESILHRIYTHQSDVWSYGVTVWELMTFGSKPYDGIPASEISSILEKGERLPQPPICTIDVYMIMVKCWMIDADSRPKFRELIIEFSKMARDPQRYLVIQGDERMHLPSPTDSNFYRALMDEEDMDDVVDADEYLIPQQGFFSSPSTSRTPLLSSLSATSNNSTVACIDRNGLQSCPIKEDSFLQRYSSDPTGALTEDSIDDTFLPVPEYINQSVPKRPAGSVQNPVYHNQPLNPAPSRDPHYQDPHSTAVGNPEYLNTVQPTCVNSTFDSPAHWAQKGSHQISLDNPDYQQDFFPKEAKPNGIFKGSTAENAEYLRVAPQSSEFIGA

EGFR (murine), sequence (P00533 whole entry, looked up): as above

Row | Structure (SMILES) | IC50 (EGFR (murine) [1]) | IC50 (EGFR (murine) [2]) | IC50 (EGFR) | inhibition (EGFR (murine) [1]; her 14, dose or concentration not given here)
1 | N#C/C(=C\c1ccc(O)c(O)c1)C(N)=O | 60 µM | 15 µM | 10 µM | 
2 | N#C/C(=C\c1ccc(O)c(O)c1)C(=O)N1CCc2ccccc21 | 100 µM | 25 µM |  | 
3 | N#CC(C#N)=Cc1cccc(O)c1 |  |  | 375 µM | 
4 | COc1cc(C=C(C#N)C#N)ccc1O |  |  | 200 µM | 
5 | N#C/C(=C\c1ccc(O)c(O)c1)C(=O)NC1CCCCC1 | 50 µM |  |  | 
6 | N#C/C(=C\c1ccc(O)c(O)c1)C(=O)c1ccc(F)cc1 | 80 µM | 20 µM |  | 
7 | N#C/C(=C\c1ccc(O)c(O)c1)C(=O)Nc1ccccc1Cl | 12 µM | 35 µM |  | 
8 | N#CC(C#N)=Cc1cc[n+]([O-])cc1 |  |  | 1300 µM | 
9 | Cc1ccc(C(=O)/C(C#N)=C/c2ccc(O)c(O)c2)cc1 | 100 µM | 7 µM |  | 
10 | N#C/C(=C\c1ccc(O)c(O)c1)C(=O)c1ccccc1 | 120 µM | 15 µM |  | 
11 | N#CC(C#N)=Cc1ccc2[nH]ccc2c1 |  | > 100 µM |  | 
12 | N#CC(C#N)=C1CCc2cc(O)c(O)cc21 | > 150 µM | 30 µM |  | 
13 | N#C/C(=C\c1ccc(O)c(O)c1)C(=O)NCCCCc1ccccc1 | 10 µM | 3 µM |  | 
14 | N#C/C(=C\c1ccc(O)c(O)c1)C(=O)NCCCc1ccccc1 | 25 µM | 2.5 µM |  | 
15 | N#CC(C#N)=C1C(=O)Nc2ccc([N+](=O)[O-])cc21 |  | 20 µM |  | 
16 | Cc1cccc(C)c1NC(=O)/C(C#N)=C/c1ccc(O)c(O)c1 | > 20 µM |  |  | 
17 | CC(NC(=O)/C(C#N)=C/c1ccc(O)c(O)c1)c1ccccc1 (stereo not given) | 10 µM | 3.5 µM |  | 0.88%
18 | N#CC(C#N)=C1C(=O)Nc2cc(O)c(O)cc21 |  | > 16 µM |  | 
19 | N#C/C(=C/c1ccc(O)c(O)c1)C(=O)NCc1ccccc1 |  | 3.5 µM |  | 
20 | COc1cc2c(cc1O)NC(=O)C2=C(C#N)C#N |  | ≥ 120 µM |  | 
21 | N#C/C(=C/c1ccc(O)c(O)c1)C(=O)NC1CCCCC1 |  | 15 µM |  | 
22 | N#C/C(=C\c1ccc(O)c(O)c1)C(=O)c1ccc([N+](=O)[O-])cc1 | < 20 µM | 20 µM |  | 
